Reference: ChEMBL document CHEMBL1909046, “DrugMatrix in vitro pharmacology data”
pIC50, pKi: −log10 of the molar value.

Columns and labels:
[1] = molecular target: Tyrosine-protein kinase Fyn (Homo sapiens, UniProt P06241); experiment: biochemical; format: cell-based, Insect cells; details: insect cells; read-out: IC50;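 note: enzymatic inhibition of Fyn kinase activity measured with Poly(Glu:Tyr) as the phosphorylation substrate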
Leukotriene C4 synthase = molecular target: T1, Leukotriene C4 synthase (Cavia porcellus, UniProt A6XA80); format: tissue-based, Lung;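 note: enzyme inhibition assay of leukotriene C4 synthase, using LTA4 as the substrate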
T1 sequence (A6XA80 whole entry): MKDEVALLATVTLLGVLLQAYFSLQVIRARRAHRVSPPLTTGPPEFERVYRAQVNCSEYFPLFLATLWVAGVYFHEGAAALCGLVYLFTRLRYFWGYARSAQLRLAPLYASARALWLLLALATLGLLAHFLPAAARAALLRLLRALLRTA

[2] = molecular target: Matrix metalloproteinase-9 (Homo sapiens, UniProt P14780); format: cell-based;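 note: inhibition of isolated MMP-9 enzyme activity toward a synthetic peptide substrate, from the DrugMatrix protease screening panel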
Matrix metalloproteinase-9, sequence (P14780 whole entry): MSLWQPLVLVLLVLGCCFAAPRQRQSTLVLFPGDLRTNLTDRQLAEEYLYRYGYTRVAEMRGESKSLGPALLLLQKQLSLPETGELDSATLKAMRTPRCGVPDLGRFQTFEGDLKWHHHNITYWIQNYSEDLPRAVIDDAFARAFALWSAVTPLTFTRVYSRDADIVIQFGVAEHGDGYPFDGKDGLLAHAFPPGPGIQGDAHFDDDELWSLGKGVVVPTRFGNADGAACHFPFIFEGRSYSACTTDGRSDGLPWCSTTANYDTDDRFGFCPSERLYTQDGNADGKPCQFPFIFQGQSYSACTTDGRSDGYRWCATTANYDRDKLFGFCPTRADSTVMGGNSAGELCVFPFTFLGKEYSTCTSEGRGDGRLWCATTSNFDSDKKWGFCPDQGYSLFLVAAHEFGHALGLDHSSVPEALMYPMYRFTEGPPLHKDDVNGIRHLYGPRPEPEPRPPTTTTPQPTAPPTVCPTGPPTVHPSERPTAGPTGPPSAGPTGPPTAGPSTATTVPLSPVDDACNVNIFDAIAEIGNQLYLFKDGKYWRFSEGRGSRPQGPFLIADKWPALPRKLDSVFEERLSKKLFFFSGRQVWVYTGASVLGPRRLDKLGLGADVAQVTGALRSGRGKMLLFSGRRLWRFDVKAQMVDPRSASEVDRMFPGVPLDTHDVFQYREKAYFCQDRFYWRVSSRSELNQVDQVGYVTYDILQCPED

[3] = molecular target: T2, Muscarinic acetylcholine receptor M4 (Homo sapiens, UniProt P08173); format: cell membranes, CHO-K1, Membrane; details: cho-k1
T2 sequence (P08173 whole entry): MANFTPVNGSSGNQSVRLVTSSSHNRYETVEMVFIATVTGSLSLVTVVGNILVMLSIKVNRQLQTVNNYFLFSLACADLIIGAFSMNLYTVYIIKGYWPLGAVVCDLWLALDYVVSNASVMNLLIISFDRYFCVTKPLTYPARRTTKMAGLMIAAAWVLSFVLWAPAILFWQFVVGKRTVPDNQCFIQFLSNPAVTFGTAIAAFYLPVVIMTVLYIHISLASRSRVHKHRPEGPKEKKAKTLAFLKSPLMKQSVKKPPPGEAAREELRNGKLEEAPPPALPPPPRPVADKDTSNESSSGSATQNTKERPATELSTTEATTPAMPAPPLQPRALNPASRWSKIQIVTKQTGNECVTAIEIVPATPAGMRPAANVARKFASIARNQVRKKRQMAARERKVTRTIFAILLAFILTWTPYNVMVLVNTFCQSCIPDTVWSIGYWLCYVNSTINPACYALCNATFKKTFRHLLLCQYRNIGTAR

Caspase-1 = molecular target: T3, Caspase-1 (Homo sapiens, UniProt P29466); parameters: species or system Escherichia coli;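 note: Caspase-1 enzyme inhibition assay with a peptide substrate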
T3 sequence (P29466 whole entry): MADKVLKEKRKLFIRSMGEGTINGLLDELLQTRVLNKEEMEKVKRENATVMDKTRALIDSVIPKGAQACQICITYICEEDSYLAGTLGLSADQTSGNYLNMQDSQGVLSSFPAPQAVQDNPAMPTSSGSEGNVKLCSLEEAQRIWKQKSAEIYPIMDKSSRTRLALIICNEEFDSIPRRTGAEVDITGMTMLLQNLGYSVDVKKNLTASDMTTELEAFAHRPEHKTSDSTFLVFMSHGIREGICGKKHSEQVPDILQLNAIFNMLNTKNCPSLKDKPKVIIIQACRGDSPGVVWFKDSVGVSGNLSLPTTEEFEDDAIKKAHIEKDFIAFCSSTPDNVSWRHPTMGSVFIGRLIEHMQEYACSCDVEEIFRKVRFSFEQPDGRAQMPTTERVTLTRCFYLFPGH

Calcitonin receptor = molecular target: T4, Calcitonin receptor (Homo sapiens, UniProt P30988); format: cell membranes, Membrane; details: t47d
T4 sequence (P30988 whole entry): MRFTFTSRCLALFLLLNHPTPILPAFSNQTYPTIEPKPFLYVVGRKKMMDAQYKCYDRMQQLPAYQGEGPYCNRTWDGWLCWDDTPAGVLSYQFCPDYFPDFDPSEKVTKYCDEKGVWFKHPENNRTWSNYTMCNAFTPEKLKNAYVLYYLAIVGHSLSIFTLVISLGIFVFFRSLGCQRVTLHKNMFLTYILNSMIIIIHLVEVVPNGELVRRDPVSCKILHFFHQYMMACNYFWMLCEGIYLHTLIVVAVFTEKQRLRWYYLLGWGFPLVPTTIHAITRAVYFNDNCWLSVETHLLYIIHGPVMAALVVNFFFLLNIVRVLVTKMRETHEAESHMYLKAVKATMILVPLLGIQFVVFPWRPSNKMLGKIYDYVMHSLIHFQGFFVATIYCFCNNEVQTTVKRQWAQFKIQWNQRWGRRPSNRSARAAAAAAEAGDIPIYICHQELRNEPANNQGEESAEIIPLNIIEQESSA

Melanocortin receptor 5 = Melanocortin receptor 5 (Homo sapiens, UniProt P33032); format: cell membranes, HEK293, Membrane; details: hek293
Melanocortin receptor 5, sequence (P33032 whole entry): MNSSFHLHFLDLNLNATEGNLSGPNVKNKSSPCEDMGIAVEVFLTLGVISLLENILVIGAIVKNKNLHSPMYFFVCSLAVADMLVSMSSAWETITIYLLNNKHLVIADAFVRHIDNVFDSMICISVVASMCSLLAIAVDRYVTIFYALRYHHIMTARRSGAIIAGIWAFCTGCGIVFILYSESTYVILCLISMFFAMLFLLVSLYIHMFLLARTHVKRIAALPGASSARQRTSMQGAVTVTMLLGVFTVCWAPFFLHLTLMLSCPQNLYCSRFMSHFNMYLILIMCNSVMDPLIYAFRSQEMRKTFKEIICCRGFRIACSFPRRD
Note: in other assays of this panel Not Active means under 50% inhibition at 10 µM.

Tyrosine-protein kinase Fyn, sequence (P06241 whole entry): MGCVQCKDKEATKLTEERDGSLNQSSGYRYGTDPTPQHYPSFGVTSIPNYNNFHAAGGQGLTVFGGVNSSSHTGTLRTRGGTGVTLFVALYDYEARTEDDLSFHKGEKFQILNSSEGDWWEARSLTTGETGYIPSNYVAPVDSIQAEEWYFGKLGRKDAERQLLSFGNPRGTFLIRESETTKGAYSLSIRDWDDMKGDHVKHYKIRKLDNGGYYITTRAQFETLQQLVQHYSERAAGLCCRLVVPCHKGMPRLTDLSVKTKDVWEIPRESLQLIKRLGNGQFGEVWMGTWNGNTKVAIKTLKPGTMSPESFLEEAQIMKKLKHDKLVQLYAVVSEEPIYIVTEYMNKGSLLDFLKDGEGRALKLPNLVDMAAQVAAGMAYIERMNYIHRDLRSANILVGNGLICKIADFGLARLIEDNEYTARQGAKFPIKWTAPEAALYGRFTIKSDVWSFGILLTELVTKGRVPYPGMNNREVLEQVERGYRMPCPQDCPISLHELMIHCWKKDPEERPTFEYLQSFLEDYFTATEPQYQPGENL

## COLISTIN
[1]
  pIC50: 6.02
Leukotriene C4 synthase
  IC50: Not Active
  Ki: Not Active
[2]
  IC50: Not Active
  Ki: Not Active
[3]
  IC50: Not Active
  Ki: Not Active
Caspase-1
  IC50: Not Active
  Ki: Not Active
Calcitonin receptor
  IC50: Not Active
  Ki: Not Active
Melanocortin receptor 5; read-out: IC50
  pIC50: 6.58
Melanocortin receptor 5; read-out: Ki
  pKi: 6.60
